Assay results published in US8846935B2, “Indazoles” (GlaxoSmithKline LLC, priority 2010, dated 2014).

Target: T1, EZH2 within the PRC2 complex (Homo sapiens, UniProt Q15910)
T1 construct: FLAG; made in house; host or cells: Sf9 cells
Experiment: EZH2 methyltransferase scintillation proximity assay (SPA)
Format: biochemical
Details: methyltransferase activity of EZH2 in human PRC2 complex, 3H-SAM, HeLa mononucleosomes
Method: Compounds contained herein were evaluated for their ability to inhibit the methyltransferase activity of EZH2 within the PRC2 complex. Human PRC2 complex was prepared by co-expressing each of the 5 member proteins (FLAG-EZH2, EED, SUZ12, RbAp48, AEBP2) in Sf9 cells followed by co-purification. Enzyme activity was measured in a scintillation proximity assay (SPA) where a tritiated methyl group is transferred from 3H-SAM to a lysine residue on Histone H3 of a mononucleosome, purified from HeLa cells. Mononucleosomes were captured on SPA beads and the resulting signal is read on a ViewLux plate reader.
Part A. Compound Preparation
• 1. Prepare 10 mM stock of compounds from solid in 100% DMSO. • 2. Set up an 11-point serial dilution (1:3 dilution, top concentration 10 mM) in 100% DMSO for each test compound in a 384 well plate leaving columns 6 and 18 for DMSO controls. • 3. Dispense 100 nL of compound from the dilution plate into reaction plates (Grenier Bio-One, 384-well, Cat#784075). Part B. Reagent Preparation Prepare the following solutions: • 1. 50 mM Tris-HCl, pH 8: Per 1 L of base buffer, combine 1 M Tris-HCl, pH 8 (50 mL) and distilled water (950 mL). • 2. 1× Assay Buffer: Per 10 mL of 1× Assay Buffer, combine 50 mM Tris-HCl, pH 8 (9958 uL), 1 M MgCl2 (20 uL), 2 M DTT (20 uL), and 10% Tween-20 (2 uL) to provide a final concentration of 50 mM Tris-HCl, pH 8, 2 mM MgCl2, 4 mM DTT, 0.002% Tween-20. • 3. 2× Enzyme Solution: Per 10 mL of 2× Enzyme Solution, combine 1× Assay Buffer and PRC2 complex to provide a final enzyme concentration of 10 nM. • 4. SPA Bead Suspension: Per 1 mL of SPA Bead Suspension, combine PS-PEI coated LEADSeeker beads (40 mg) and ddH2O (1 mL) to provide a final concentration of 40 mg/mL. • 5. 2× Substrate Solution: Per 10 mL of 2× Substrate Solution, combine 1× Assay Buffer (9728.55 uL), 800 ug/mL mononucleosomes (125 uL), 1 mM cold SAM (4 uL), and 7.02 uM 3H-SAM (142.45 uL; 0.55 mCi/mL) to provide a final concentration of 5 ug/mL nucleosomes, 0.2 uM cold SAM, and 0.05 uM 3H-SAM. • 6. 2.67× Quench/Bead Mixture: Per 10 mL of 2.67× Quench/Bead Mixture, combine ddH2O (9358 uL), 10 mM cold SAM (267 uL), 40 mg/mL Bead Suspension (375 uL) to provide a final concentration of 100 uM cold SAM and 0.5 mg/mL SPA beads. Part C. Assay Reaction in 384-well Grenier Bio-One Plates Compound Addition • 1. Dispense […] of 100× Compound to test wells (as noted above). • 2. Dispense […] of 100% DMSO to columns 6 & 18 for high and low controls, respectively. Assay • 1. Dispense 5 uL/well of 1× Assay Buffer to column 18 (low control reactions). • 2. Dispense 5 uL/well of 2× Enzyme Solution to columns 1-17, 19-24. • 3. Spin assay plates for ˜1 minute at 500 rpm. • 4. Stack the assay plates, covering the top plate. • 5. Incubate the compound/DMSO with the enzyme for 30 minutes at room temperature. • 6. Dispense 5 uL/well of 2× Substrate Solution to columns 1-24. • 7. Spin assay plates for ˜1 minute at 500 rpm. • 8. Stack the assay plates, covering the top plate. • 9. Incubate the assay plates at room temperature for 1 hour. Quench/Bead Addition • 1. Dispense 5 uL/well of the 3× Quench/Bead Mixture to columns 1-24. • 2. Seal the top of each assay plate with adhesive TopSeal. • 3. Spin assay plates for ˜1 minute at 500 rpm. • 4. Equilibrate the plates for >20 min. Read Plates • 1. Read the assay plates on the Viewlux Plate Reader utilizing the 613 nm emission filter with a 300 s read time. Reagent addition can be done manually or with automated liquid handler. *The final DMSO concentration in this assay is 1%. *The positive control is in column 6; negative control is in column 18. *Final starting concentration of compounds is 100 μM. Part D. Data Analysis
Percent inhibition was calculated relative to the DMSO control for each compound concentration and the resulting values were fit using standard IC50 fitting parameters within the ABASE data fitting software package.

T1 sequence (Q15910 whole entry): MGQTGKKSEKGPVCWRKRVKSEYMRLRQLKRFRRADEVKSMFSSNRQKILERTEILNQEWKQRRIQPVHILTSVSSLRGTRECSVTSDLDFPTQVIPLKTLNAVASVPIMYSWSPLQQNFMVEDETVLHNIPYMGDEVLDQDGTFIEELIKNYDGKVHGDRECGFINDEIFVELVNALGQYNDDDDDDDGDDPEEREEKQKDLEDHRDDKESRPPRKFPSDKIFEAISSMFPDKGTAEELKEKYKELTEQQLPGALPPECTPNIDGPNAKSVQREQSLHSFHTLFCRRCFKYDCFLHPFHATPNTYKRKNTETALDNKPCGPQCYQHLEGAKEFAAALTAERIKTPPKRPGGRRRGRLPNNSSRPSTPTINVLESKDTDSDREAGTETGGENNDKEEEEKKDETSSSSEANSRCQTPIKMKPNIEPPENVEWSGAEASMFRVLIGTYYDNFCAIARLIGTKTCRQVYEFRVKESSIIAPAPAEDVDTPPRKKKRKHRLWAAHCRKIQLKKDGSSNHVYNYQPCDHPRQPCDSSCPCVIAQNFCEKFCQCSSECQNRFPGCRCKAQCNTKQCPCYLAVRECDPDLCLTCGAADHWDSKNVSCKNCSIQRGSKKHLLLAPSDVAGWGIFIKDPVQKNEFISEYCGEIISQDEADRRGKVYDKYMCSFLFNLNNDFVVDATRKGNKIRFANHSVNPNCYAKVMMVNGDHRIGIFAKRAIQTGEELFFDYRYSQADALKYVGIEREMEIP
T1 sequence (O75530 whole entry partner): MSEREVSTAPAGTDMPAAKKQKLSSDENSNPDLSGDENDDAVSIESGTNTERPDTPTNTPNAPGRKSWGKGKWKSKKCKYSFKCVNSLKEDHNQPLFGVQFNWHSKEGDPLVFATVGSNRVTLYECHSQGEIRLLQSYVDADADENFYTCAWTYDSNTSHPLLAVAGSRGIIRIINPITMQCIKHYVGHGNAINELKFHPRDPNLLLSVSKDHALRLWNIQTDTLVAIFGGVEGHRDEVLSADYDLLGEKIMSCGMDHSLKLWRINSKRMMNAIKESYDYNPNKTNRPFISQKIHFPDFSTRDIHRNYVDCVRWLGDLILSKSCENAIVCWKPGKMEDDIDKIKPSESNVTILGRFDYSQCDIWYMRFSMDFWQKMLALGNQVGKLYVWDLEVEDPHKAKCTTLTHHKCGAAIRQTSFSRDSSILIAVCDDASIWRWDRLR
T1 sequence (Q15022 whole entry partner): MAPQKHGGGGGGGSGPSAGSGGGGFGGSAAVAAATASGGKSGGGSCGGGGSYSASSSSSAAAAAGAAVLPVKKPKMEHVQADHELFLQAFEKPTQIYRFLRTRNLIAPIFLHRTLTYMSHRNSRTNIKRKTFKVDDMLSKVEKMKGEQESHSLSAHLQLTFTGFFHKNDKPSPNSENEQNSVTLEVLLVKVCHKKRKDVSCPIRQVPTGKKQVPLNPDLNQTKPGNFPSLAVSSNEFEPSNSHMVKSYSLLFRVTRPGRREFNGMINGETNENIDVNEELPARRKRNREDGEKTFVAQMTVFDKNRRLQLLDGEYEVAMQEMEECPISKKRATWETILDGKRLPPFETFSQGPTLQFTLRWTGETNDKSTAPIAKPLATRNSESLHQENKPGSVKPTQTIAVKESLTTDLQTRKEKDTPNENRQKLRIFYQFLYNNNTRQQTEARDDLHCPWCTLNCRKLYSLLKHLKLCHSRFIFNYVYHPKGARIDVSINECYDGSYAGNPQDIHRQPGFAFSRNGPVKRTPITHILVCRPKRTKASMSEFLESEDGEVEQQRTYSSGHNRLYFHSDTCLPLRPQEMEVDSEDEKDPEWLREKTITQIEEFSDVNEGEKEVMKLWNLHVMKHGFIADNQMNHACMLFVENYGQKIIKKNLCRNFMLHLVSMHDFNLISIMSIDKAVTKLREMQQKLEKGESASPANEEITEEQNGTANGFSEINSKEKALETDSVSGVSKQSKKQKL
T1 sequence (Q09028 whole entry partner): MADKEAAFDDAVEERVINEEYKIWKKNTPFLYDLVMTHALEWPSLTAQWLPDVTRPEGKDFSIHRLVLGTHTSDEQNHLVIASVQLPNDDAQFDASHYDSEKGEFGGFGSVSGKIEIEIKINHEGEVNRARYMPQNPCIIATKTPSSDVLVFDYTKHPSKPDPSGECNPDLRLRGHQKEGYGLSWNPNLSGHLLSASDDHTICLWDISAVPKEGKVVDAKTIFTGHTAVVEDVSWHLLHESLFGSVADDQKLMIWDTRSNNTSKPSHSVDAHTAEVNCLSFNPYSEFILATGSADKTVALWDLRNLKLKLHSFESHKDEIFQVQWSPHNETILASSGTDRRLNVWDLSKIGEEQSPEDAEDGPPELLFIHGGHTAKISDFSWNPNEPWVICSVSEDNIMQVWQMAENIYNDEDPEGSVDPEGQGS
T1 sequence (Q6ZN18 whole entry partner): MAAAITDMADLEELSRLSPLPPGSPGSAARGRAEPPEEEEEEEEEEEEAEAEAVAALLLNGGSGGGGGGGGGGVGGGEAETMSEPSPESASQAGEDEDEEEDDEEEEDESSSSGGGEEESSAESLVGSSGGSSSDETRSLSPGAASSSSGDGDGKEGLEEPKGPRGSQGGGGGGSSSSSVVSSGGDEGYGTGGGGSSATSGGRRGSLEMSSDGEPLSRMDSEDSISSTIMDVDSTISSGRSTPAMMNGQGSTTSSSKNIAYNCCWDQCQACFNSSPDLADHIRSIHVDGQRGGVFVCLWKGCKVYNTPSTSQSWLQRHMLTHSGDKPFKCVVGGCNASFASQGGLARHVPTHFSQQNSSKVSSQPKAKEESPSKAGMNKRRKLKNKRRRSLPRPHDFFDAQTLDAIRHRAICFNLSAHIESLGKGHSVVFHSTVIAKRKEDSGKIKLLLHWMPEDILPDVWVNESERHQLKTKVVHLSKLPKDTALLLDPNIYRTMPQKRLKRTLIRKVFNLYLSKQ

`CCc1cc(C)[nH]c(=O)c1CNC(=O)c1cc(-c2ccc(CN(C)C)cc2)cc2c1cnn2C(C)C` [Example 14, 6-(4-((dimethylamino)methyl)phenyl)-N-((4-ethyl-6-methyl-2-oxo-1,2-dihydropyridin-3-yl)methyl)-1-isopropyl-1H-indazole-4-carboxamide] gave an IC50 of 0.005 µM.
Work on “1-isopropyl-N-((6-methyl-2-oxo-4-propyl-1,2-dihydropyridin-3-yl)methyl)-6-(thiophen-3-yl)-1H-indazole-4-carboxamide [Example 32]” yielded an IC50 of 0.025 µM.
For `CCCc1cc(C)[nH]c(=O)c1CNC(=O)c1cc(-c2ccc(N(C)C)nc2)cc2c1cnn2C(C)C` [Example 18, 6-[6-(dimethylamino)-3-pyridinyl]-1-(1-methylethyl)-N-[(6-methyl-2-oxo-4-propyl-1,2-dihydro-3-pyridinyl)methyl]-1H-indazole-4-carboxamide], the IC50 was 0.01 µM.
For `CCCc1cc(C)[nH]c(=O)c1CNC(=O)c1cc(Cl)cc2c1cnn2C(C)C` [Example 1, 6-chloro-1-(1-methylethyl)-N-[(6-methyl-2-oxo-4-propyl-1,2-dihydro-3-pyridinyl)methyl]-1H-indazole-4-carboxamide], the IC50 was 0.032 µM.
Compound `Cc1cc(C)c(CNC(=O)c2cc(-c3ccc(N(C)C)nc3)cc3c2cnn3C(C)C)c(=O)[nH]1` [Example 27, 6-[6-(dimethylamino)-3-pyridinyl]-N-[(4,6-dimethyl-2-oxo-1,2-dihydro-3-pyridinyl)methyl]-1-(1-methylethyl)-1H-indazole-4-carboxamide] has an IC50 of 0.032 µM.
`CCCc1cc(C)[nH]c(=O)c1CNC(=O)c1cc(-c2cnc(C)nc2)cc2c1cnn2C(C)C` [Example 17, 1-isopropyl-N-((6-methyl-2-oxo-4-propyl-1,2-dihydropyridin-3-yl)methyl)-6-(2-methylpyrimidin-5-yl)-1H-indazole-4-carboxamide] was tested, and the IC50 was 0.008 µM.
